Reference: ChEMBL document CHEMBL1201862, “PubChem BioAssay data set” (2004)
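Growth conditions: 96-well plates. Treatment: test compound, 48 hours, 5 concentrations. Analysis: linear interpolation between bracketing concentrations; unreached endpoints set to highest concentration. GI50 is the concentration that inhibits growth by half.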 Activity calls are given as the source filed them. No stated cut-off is given here; in the data, active = GI50 up to about 1.1 µM and inactive = higher.

Key:
Experiment in all cases: NCI anticancer screen, dose series, 48 h
OVCAR-5 = system: OVCAR-5
CAKI-1 = system: CAKI-1
HCT-116 = system: HCT-116
A549 = system: A549
K562 = system: K562
NCI-H226 = system: NCI-H226
A498 = system: A498
U-251 = system: U-251
UO-31 = system: UO-31
NCI-H522 = system: NCI-H522
OVCAR-3 = system: OVCAR-3
SK-MEL-5 = system: SK-MEL-5
CCRF-CEM = system: CCRF-CEM
MOLT-4 = system: MOLT-4
HT-29 = system: HT-29
SNB-75 = system: SNB-75
HOP-92 = system: HOP-92

Measured: GI50

Cc1ccc2c(ccc(/C=C\c3cc(C)c4cccnc4c3O)[n+]2C)c1
active: HCT-116 0.61 µM | K562 0.385 µM | SK-MEL-5 0.372 µM | CCRF-CEM 0.796 µM | MOLT-4 1.05 µM
inactive: OVCAR-5 22 µM | CAKI-1 5.53 µM | A549 8.43 µM | NCI-H226 1.4 µM | A498 14.6 µM | U-251 1.75 µM | UO-31 15.7 µM | NCI-H522 4.34 µM | OVCAR-3 2.01 µM

O=C1CC[C@@H](S(=O)(=O)c2ccccc2)[C@@H](/C=C/c2ccccc2)O1
inactive: HT-29 > 100 µM | OVCAR-5 > 100 µM | HCT-116 > 100 µM | A549 > 100 µM | K562 > 100 µM | NCI-H226 > 100 µM | A498 > 100 µM | U-251 > 100 µM | UO-31 > 100 µM | NCI-H522 > 100 µM | OVCAR-3 > 100 µM | SNB-75 > 100 µM | SK-MEL-5 > 100 µM | CCRF-CEM > 100 µM | MOLT-4 > 100 µM

Cc1ccc(NC(=O)CC/C(CC(=O)C(C)(C)C)=N\NC(=O)C[n+]2ccccc2)cc1C
inactive: HT-29 91.2 µM | OVCAR-5 > 100 µM | HOP-92 > 100 µM | CAKI-1 > 100 µM | HCT-116 74.5 µM | A549 > 100 µM | K562 46.9 µM | NCI-H226 > 100 µM | A498 > 100 µM | U-251 87.9 µM | UO-31 > 100 µM | NCI-H522 > 100 µM | OVCAR-3 > 100 µM | SNB-75 > 100 µM | SK-MEL-5 > 100 µM | CCRF-CEM 45.3 µM | MOLT-4 51.2 µM

CCC1(O)C(=O)OCc2c1cc1n(c2=O)Cc2c-1nc1ccccc1c2OC (centres undefined)
active: HT-29 0.061 µM | OVCAR-5 0.0711 µM | HOP-92 0.106 µM | CAKI-1 < 0.01 µM | HCT-116 0.0453 µM | A549 < 0.0127 µM | K562 < 0.0305 µM | NCI-H226 < 0.01 µM | A498 0.0513 µM | U-251 < 0.01 µM | UO-31 < 0.0221 µM | NCI-H522 0.0242 µM | OVCAR-3 0.257 µM | SNB-75 < 0.0156 µM | SK-MEL-5 0.0184 µM | CCRF-CEM < 0.01 µM | MOLT-4 < 0.01 µM

O=[N+]([O-])c1cnn(C2=CNc3ccccc3N=C2)c1
inactive: HT-29 > 100 µM | OVCAR-5 > 100 µM | HOP-92 > 100 µM | HCT-116 > 100 µM | A549 > 100 µM | NCI-H226 > 100 µM | U-251 > 100 µM | UO-31 > 100 µM | OVCAR-3 > 100 µM | SNB-75 43.8 µM | CCRF-CEM > 100 µM | MOLT-4 > 100 µM

CCOC(=O)/C(C)=C(/O)C(=O)OCC
inactive: HT-29 > 100 µM | OVCAR-5 > 100 µM | HOP-92 > 100 µM | CAKI-1 > 100 µM | HCT-116 > 100 µM | A549 > 100 µM | K562 > 100 µM | NCI-H226 > 100 µM | A498 > 100 µM | U-251 > 100 µM | UO-31 > 100 µM | NCI-H522 > 100 µM | OVCAR-3 > 100 µM | SNB-75 > 100 µM | SK-MEL-5 > 100 µM | CCRF-CEM > 100 µM | MOLT-4 > 100 µM

COC(=O)C1=C(C[S+]([O-])c2ccc([N+](=O)[O-])cc2[N+](=O)[O-])C2C=CC1C2 (centres undefined)
inactive: HT-29 17.7 µM | OVCAR-5 > 100 µM | CAKI-1 21.1 µM | HCT-116 21.8 µM | A549 57 µM | K562 19 µM | NCI-H226 31.4 µM | A498 > 100 µM | U-251 20 µM | UO-31 22.4 µM | NCI-H522 13.8 µM | OVCAR-3 23.1 µM | SNB-75 25.3 µM | SK-MEL-5 63.2 µM | CCRF-CEM 11.8 µM | MOLT-4 22.2 µM

N#CC(C#N)=c1ccc(=C2NCC3CCCN23)cc1 (centres undefined)
inactive: HT-29 > 100 µM | OVCAR-5 > 100 µM | HOP-92 > 100 µM | CAKI-1 > 100 µM | HCT-116 > 100 µM | A549 > 100 µM | K562 > 100 µM | NCI-H226 > 100 µM | A498 > 100 µM | U-251 > 100 µM | UO-31 > 100 µM | NCI-H522 > 100 µM | SNB-75 > 100 µM | SK-MEL-5 > 100 µM | CCRF-CEM > 100 µM | MOLT-4 > 100 µM

Cc1ccc(C(=O)NCCN(C)C)c2nc3ccccc3cc12
active: HT-29 0.462 µM | HCT-116 0.468 µM | A549 0.92 µM | U-251 0.644 µM | MOLT-4 0.608 µM
inactive: OVCAR-5 1.94 µM | HOP-92 14 µM | CAKI-1 1.79 µM | K562 1.4 µM | NCI-H226 1.15 µM | UO-31 2.49 µM | OVCAR-3 1.32 µM | SNB-75 1.52 µM | SK-MEL-5 1.52 µM | CCRF-CEM 1.54 µM

COC1O[C@@H]2COC(C)(C)O[C@@H]2C(=O)N1Nc1ccc([N+](=O)[O-])cc1 (some centres undefined)
inactive: HT-29 63 µM | OVCAR-5 > 100 µM | HOP-92 > 100 µM | CAKI-1 > 100 µM | HCT-116 > 100 µM | A549 > 100 µM | K562 > 100 µM | NCI-H226 > 100 µM | A498 > 100 µM | U-251 > 100 µM | UO-31 > 100 µM | OVCAR-3 > 100 µM | SNB-75 > 100 µM | SK-MEL-5 > 100 µM | CCRF-CEM > 10 µM | MOLT-4 > 100 µM

COC(=O)[C@@]12C3=NO[C@]1(C(=O)OC)C(O[Si](C)(C)C(C)(C)C)C1OC(C)(C)OC1[C@@H]2[C@@H](OCc1ccccc1)CC3 (some centres undefined)
inactive: HT-29 33 µM | HOP-92 4.4 µM | HCT-116 8.2 µM | A549 > 100 µM | K562 8.93 µM | NCI-H226 > 100 µM | A498 > 100 µM | U-251 > 100 µM | UO-31 8.85 µM | OVCAR-3 39.7 µM | SNB-75 9.66 µM | SK-MEL-5 85.5 µM | CCRF-CEM > 100 µM | MOLT-4 7.52 µM

CC(C)(C)CC(C)(C)NCC(O)COc1ccc(C(C)(C)c2ccc(OCC(O)CNC(C)(C)CC(C)(C)C)cc2)cc1 (centres undefined)
inactive: OVCAR-5 1.88 µM | HOP-92 1.78 µM | CAKI-1 1.75 µM | HCT-116 2.37 µM | A549 1.6 µM | NCI-H226 1.97 µM | A498 1.58 µM | UO-31 1.61 µM | NCI-H522 1.61 µM | OVCAR-3 1.77 µM | SNB-75 1.6 µM | SK-MEL-5 1.32 µM
active: HT-29 0.403 µM | K562 0.244 µM | U-251 0.7 µM | CCRF-CEM 0.356 µM | MOLT-4 0.34 µM

C=CCNC(=O)NCCCCC(NC(C)=O)C(=O)NCc1ccccc1 (centres undefined)
inactive: HT-29 > 100 µM | OVCAR-5 > 100 µM | HOP-92 > 100 µM | CAKI-1 > 100 µM | A549 > 100 µM | K562 > 100 µM | NCI-H226 > 100 µM | A498 > 100 µM | U-251 > 100 µM | UO-31 > 100 µM | NCI-H522 > 100 µM | OVCAR-3 > 100 µM | SNB-75 > 100 µM | SK-MEL-5 > 100 µM | CCRF-CEM > 100 µM | MOLT-4 > 100 µM

COc1ccc2c(c1)Oc1cc(O)ccc1[C@@H]2c1ccccc1C(=O)NC(C)c1ccccc1 (some centres undefined)
inactive: HT-29 15.3 µM | OVCAR-5 16.4 µM | CAKI-1 20.6 µM | HCT-116 12.2 µM | A549 17.7 µM | K562 14.8 µM | NCI-H226 18.3 µM | A498 17.7 µM | U-251 15 µM | UO-31 13.5 µM | NCI-H522 14.4 µM | OVCAR-3 15.9 µM | SNB-75 14.7 µM | SK-MEL-5 17.7 µM | CCRF-CEM 15.8 µM | MOLT-4 5.73 µM

COC(=O)N/N=C(\C(=O)Nc1cccc([N+](=O)[O-])c1)c1nc2ccc([N+](=O)[O-])cc2nc1O
inactive: HT-29 60.7 µM | OVCAR-5 > 100 µM | HOP-92 61.2 µM | HCT-116 61.7 µM | A549 42.9 µM | K562 11.4 µM | NCI-H226 > 100 µM | UO-31 14.5 µM | NCI-H522 3.47 µM | OVCAR-3 49.8 µM | SNB-75 85.7 µM | SK-MEL-5 34 µM | CCRF-CEM > 100 µM | MOLT-4 52.7 µM

Oc1cc(-c2ccc3c(c2)OCO3)nc2cc3c(cc12)OCO3
inactive: HT-29 37.8 µM | HOP-92 > 100 µM | CAKI-1 64.4 µM | A549 42.9 µM | K562 28.8 µM | NCI-H226 34.4 µM | U-251 30.5 µM | UO-31 > 100 µM | NCI-H522 40.2 µM | CCRF-CEM 31.7 µM | MOLT-4 59.8 µM
active: SNB-75 1.01 µM

COc1ccc(C(O)/C(=C/n2ccnc2)c2ccccc2)cc1OC (centres undefined)
inactive: HT-29 > 100 µM | OVCAR-5 > 100 µM | HOP-92 > 100 µM | HCT-116 > 100 µM | A549 > 100 µM | K562 > 100 µM | NCI-H226 > 100 µM | A498 > 100 µM | U-251 > 100 µM | UO-31 > 100 µM | OVCAR-3 > 100 µM | SNB-75 49.4 µM | SK-MEL-5 > 100 µM | CCRF-CEM > 100 µM | MOLT-4 > 100 µM
